Data on three compounds can be found in patent publication US11213027B2, “Combined administration of a penetration agent and a sulfur containing compound to plants” (THE STATE OF ISRAEL, MINISTRY OF AGRICULTURE & RURAL …, priority 2016, dated 2022).

In test [1] the test system is cv. Early Sweet vines. The test is described as follows: Bud break on whole vines in a vineyard, Jordan Valley (spur pruning, hot winter). It is filed as in vivo, Vitis vinifera. To be noted: Example 2, FIG. 2, negative control Triton, positive control 5% HC.
The test system of test [2] is berries of cv. Early Sweet vines. Kind of test: TSS (sugar) level of berries of treated vines. The settings on record: Example 3, FIG. 4; 6% DADS with 2% Armobreak®; Brix meter; versus control and HC. It is filed as in vivo, Vitis vinifera.
Test [3] concerns cv. Early Sweet vines. The test is described as follows: Bud break on whole vines, greenhouse in Argaman, Jordan Valley. It is filed as in vivo, Vitis vinifera. The settings on record: Example 21, FIGS. 23A, 23B; 6% DADS alone (DADS 6% control); natural bud break about 25-45%.
In test [4] the test system is grapevine buds (cuttings, whole vine). The settings on record: cited from earlier work.
Test [5] relates to corms, tubers and apple buds. The settings on record: cited from earlier work.
Test [6] concerns Vitis vinifera cv. Early Sweet single-node cuttings. The test is described as follows: Bud break on grapevine single-node cuttings in growth chamber. It is filed as in vivo.
For the next test, the system named is whole vines in vineyards. The test is described as follows: Overall bud break in vineyards, summary over the examples. It is filed as in vivo, grapevine. The settings on record: spur pruned vineyard in region with higher chilling (FIG. 19, Example 17).

Turning to `C=CCSSCC=C` [DADS, diallyl disulfide], the bud break result with cv. Early Sweet vines [1] (2% DADS with 0.02% Triton X-100) is “no effect”; in the test on cv. Early Sweet vines [1] (4% DADS with 0.02% Triton X-100), “slight enhancement in bud break in comparison to the negative control”; with cv. Early Sweet vines [3] it was “results within the range of the natural bud break”; in test [5], “enhanced bud break of corms, tubers and apple buds”; in test [6] (Example 1, FIG. 1, 1% DADS sprayed with 0.02% Triton X-100, compared with 0.1%, 5% and 10% DADS), “best result”; in test [6] (Example 1, FIG. 1, 5% DADS sprayed with 0.02% Triton X-100, control 0.02% Triton X-100 only, 22° C., monitored to day 28), “toxic and actually inhibit bud break”. For the same compound, the bud break entry in test [6] (Example 1, FIG. 1, 10% DADS sprayed with 0.02% Triton X-100, control 0.02% Triton X-100 only, monitored to day 28) is “toxic and actually inhibit bud break”. For the same compound, the “TSS levels of the berries (ripening)” value in test [2] is on record as “increase the total soluble solids (TSS) level of the berries in comparison to the control”. The “bud break enhancing effect” value in test [4] (applied to the whole vine, rather than to cuttings) is “very limited and inferior to the known HC”. Moreover, in test [4] (volatile compounds containing sulfur and allyl groups), the “grapevine bud break enhancement among garlic volatile compounds” value is “particularly effective”.

Take `N#CN` [HC, hydrogen cyanamide]: the bud break result in the test on whole vines in vineyards is given as “a milder effect or no effect”.

On to `C=CCSCC=C` [DAS, Diallyl Sulfide], for which the bud break entry is reported as “may reduce bud breaking” in test [6] (Example 5, FIG. 7, higher concentrations of DAS (0.1%, 1%, 5% tested) with 2% Armobreak®, control 2% Armobreak®) and “enhance bud breaking in grapevine cuttings” in test [6] (Example 5, FIG. 7, relatively low concentrations of DAS (0.1%, 1%, 5% tested) with 2% Armobreak®, control 2% Armobreak®).
